According to patent US10294230B2, “3,3-difluoropiperidine carbamate heterocyclic compounds as NR2B NMDA receptor antagonists” (Rugen Holdings (Cayman) Limited, priority 2015, dated 2019):

What was measured:
[1] = system: formalin-induced nociceptive behavior; assay: Rat Formalin Model; type: in vivo; details: rats, 10, 30 and 60 mpk i.p., mesylate salt
Experimental: The rat formalin model is a tonic model of continuous pain resulting from formalin-induced spontaneous nociceptive behaviors. Intra-paw injection of formalin is a commonly used model to measure spontaneous nociceptive behaviors in rodents (Dubuisson, D. and Dennis, S. G. Pain 4:161, 1977). Subcutaneous plantar injection of formalin causes a bi-phasic nocifensive behavioral response in rodents. The early phase (phase-1) lasts for about 5-10 min following which an interphase occurs without any discernible nociceptive reactions after which the late phase (phase-II) nociceptive reaction ensues continuing from about 20-60 min following formalin injection. Formalin model is a model of tonic, persistent pain, and is widely used for rapid screening of novel analgesic compounds. […] In the present example, effects of test item were assessed in 0-5 minutes from the early phase (phase-I) and 20-35 minutes from the late phase (phase-II) of formalin-induced nociceptive behavior. […]
For all groups, animals were acclimated to the observation chamber for 15 minutes immediately prior to formalin injection. All animals received an intraplantar subcutaneous injection of 50 μL of 5% formalin into the left hind paw and then placed immediately into an observation chamber and formalin-evoked spontaneous nociceptive behaviors in the rats were continuously recorded for 0-60 min using a commercial camcorder. […]

human NR1/NR2B = human NR1/NR2B (Homo sapiens (Human), UniProt Q05586+Q13224); assay: NR2B antagonist activity, Fluo-4 calcium influx in HEK293 cells; type: cell-based
Chain of human NR1/NR2B (Q13224 27-1484, other chains not shown): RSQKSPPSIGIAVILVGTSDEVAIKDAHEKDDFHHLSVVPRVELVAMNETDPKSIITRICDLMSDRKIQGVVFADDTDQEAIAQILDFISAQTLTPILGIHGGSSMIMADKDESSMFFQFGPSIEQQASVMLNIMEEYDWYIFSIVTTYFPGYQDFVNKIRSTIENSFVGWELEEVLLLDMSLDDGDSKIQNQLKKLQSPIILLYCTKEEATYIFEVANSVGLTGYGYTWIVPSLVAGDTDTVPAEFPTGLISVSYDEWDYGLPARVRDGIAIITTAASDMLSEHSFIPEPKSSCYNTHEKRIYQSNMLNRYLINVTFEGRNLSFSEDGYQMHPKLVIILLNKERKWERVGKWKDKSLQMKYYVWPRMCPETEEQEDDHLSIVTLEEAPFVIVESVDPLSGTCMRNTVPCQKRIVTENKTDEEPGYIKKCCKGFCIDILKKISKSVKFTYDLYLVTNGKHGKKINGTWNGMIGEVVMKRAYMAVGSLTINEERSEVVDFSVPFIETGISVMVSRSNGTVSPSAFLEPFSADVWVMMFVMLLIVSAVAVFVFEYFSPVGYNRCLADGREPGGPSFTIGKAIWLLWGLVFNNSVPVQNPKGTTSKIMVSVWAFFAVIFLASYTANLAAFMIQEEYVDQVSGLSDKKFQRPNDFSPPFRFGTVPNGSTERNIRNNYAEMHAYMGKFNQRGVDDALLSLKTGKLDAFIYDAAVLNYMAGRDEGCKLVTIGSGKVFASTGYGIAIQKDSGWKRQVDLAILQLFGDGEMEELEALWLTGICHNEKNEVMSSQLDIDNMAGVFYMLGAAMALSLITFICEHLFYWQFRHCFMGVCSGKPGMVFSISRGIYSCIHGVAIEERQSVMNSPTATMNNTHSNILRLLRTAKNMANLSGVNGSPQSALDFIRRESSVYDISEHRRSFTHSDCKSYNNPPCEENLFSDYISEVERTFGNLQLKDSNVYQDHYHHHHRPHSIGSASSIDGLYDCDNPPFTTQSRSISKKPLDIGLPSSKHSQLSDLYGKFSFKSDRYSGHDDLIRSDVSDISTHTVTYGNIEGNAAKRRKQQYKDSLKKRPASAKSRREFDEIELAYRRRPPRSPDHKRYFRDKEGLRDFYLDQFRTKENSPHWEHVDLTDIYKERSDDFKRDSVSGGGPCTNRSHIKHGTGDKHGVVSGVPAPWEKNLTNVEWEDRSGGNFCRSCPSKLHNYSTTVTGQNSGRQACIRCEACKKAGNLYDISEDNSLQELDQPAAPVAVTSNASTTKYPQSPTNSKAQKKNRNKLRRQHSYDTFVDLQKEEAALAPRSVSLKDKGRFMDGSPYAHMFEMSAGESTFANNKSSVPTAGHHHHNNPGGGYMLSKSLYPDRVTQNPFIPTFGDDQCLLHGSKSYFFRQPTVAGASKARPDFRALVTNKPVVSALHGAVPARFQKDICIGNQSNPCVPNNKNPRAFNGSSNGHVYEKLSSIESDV
Experimental: HEK293 cell lines stably expressing cloned human NR1/NR2B and NR1/NR2A, respectively, were established according to standard previously described methods (Hansen et al., Comb. Chem High Throughput Screen. 11:304, 2008). Activation of the NR2A or NR2B subtype of NMDA receptor with glutamate as an agonist and glycine co-agonist on these cells results in calcium influx, which can be monitored with fluorescent indicator Fluo-4.
For experiments, the cells were seeded onto poly-D-lysine-coated 96-well black plates with clear bottom (Corning) at a density of ˜50,000 cells/well. After overnight culture, the growth medium was removed from the wells and the cells were incubated at 37° C. for 60 min in Hanks buffer containing 4 μM fluo-4-AM (Invitrogen) and 0.1% bovine serum albumin (BSA). After dye-loading, the cells were washed three times with Hanks buffer and incubated for 10 min at room temperature with various concentrations of test compounds prepared in Hanks buffer with 0.1% BSA. The cell plates were placed onto FDSS pCell fluorescence reader (Hamamatsu). After 20 sec reading of background fluorescence, agonist glutamate at final 100 μM and co-agonist glycine at final 50 μM were added to the cells to activate the receptor, and the resulting fluorescence changes were recorded and quantified. Based on the changes in fluorescence intensity, the pharmacological effect of test compounds were analyzed and the IC50 values derived from a non-linear least squares fitting of the concentration-dependent response to a standard logistic equation using Prism (Graphpad, Inc): Amplitude=Max Amplitude/(1+(IC50/[antagonist])^n).

[2] = system: pentylenetetrazole (PTZ) induced convulsions; assay: Pentylenetetrazole (PTZ) Seizure Test; type: in vivo; details: 10 mg/kg p.o., mesylate salt
Experimental: Rats, placed in individual macrolon cages (25×19×13 cm), were injected with pentylenetetrazole (PTZ) (100 mg/kg s.c.). The occurrence and latency of clonic and tonic convulsions and death were noted over a 30 minute period. 15 rats were studied per group. The test was performed blind. […]
Compounds were evaluated typically using 0.5% dimethylsulfoxide, 4% hydroxypropyl-b-cyclodextrin water as a vehicle at 1 or more doses (e.g., 1, 3 and 10 mg/kg), administered p.o. 30 minutes before PTZ, and compared with a vehicle control group. Diazepam (16 mg/kg p.o.), administered 60 minutes before PTZ, was used as reference substance. The experiment was performed over 2 separate sub-experiments with N=7 to 8 animals per group and per sub-experiment. Quantitative data (latencies) with the test substance was analyzed by comparing treated groups with vehicle control using Kruskal-Wallis test followed by Mann-Whitney U test. Quantitative data with the reference substance was analyzed using Mann-Whitney U test. Quantal data (frequencies) was analyzed by comparing treated groups with vehicle control using Fisher's Exact Probability tests (*=p<0.05; **=p<0.01; ***=p<0.001).

CYP2D6 = CYP2D6 (Homo sapiens (Human), UniProt P10635); assay: CYP P450 enzyme inhibition, pooled human liver microsome; type: in vitro ADME; details: 10 μM, pooled HLM, dextromethorphan 5 μM
Chain of CYP2D6 (P10635 whole entry): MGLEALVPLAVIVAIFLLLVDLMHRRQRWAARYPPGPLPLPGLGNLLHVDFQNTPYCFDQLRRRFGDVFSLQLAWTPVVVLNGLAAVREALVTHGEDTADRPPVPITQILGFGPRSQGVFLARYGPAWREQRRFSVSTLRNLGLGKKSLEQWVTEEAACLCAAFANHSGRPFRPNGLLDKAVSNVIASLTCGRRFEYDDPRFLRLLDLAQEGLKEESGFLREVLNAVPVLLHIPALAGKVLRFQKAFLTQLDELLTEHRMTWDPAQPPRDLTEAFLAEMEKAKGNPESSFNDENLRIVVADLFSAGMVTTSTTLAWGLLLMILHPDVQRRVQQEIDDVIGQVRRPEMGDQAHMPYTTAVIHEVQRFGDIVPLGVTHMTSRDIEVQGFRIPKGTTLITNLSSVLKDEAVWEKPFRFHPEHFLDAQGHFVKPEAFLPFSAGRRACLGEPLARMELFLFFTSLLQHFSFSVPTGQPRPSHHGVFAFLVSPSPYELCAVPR
Experimental: Those CYP isoforms and their corresponding probe substrates are as follows: CYP1A2 (phenacetin, 30 μM), CYP2C9 (tolutamide, 100 μM), CYP2C19 (S-mephenytoin, 40 μM), CYP2D6 (dextromethorphan, 5 μM) and CYP3A4 (midazolam, 1 μM). All probe substrates were used at concentrations near or below their Kms. For experiment, a reaction mixture of test compound at 10 μM or in serial dilution, CYP probe substrate described above and 0.2 mg/mL pooled HLM in phosphate buffer, pH 7.4 in a final volume of 200 μL was pre-incubated at 37° C. for 10 minutes in triplicate. The reaction was initiated by addition of NADPH at final concentration of 1 mM. The reaction was terminated after 10 minutes (CYP1A2, CYP2D6 and CYP3A4) or 30 minutes (CYP2C9 and CYP2C19) by addition of 100 μL ice-cold acetonitrile with internal standard (IS). The samples were then centrifuged at 13,000 rpm and the supernatants were injected to LC-MS/MS (Agilent Technologies) to quantify the concentration of the specific metabolites of the probe substrates formed by individual CYP450 isoforms. The inhibition ratio is calculated as: (Mt−M0)/Mwater×100% in which Mt and M0 represent the concentrations of the specific probe substrate metabolite, which was formed by individual CYP450 isoform, at the beginning and end of the reaction in the presence of test compound; while Mwater represents the concentration of the specific metabolite at the end of the reaction in the absence of test compound. Test compound concentration-dependent response data experiments performed in triplicate.

Cc1ccc(COC(=O)N2CC[C@H](CNc3nccn4cnnc34)C(F)(F)C2)cc1 [Compound E1-1.2, (+)-R-4-methylbenzyl 4-(([1,2,4]triazolo[4,3-a]pyrazin-8-ylamino)methyl)-3,3-difluoropiperidine-1-carboxylate]
cumulative time spent on nociceptive behavior in phase I (0-5 mins) [1]: decreased
cumulative time spent on nociceptive behavior in phase II (20-35 mins) [1]: decreased
IC50 (human NR1/NR2B; Table 2.1, HEK293 human NR1/NR2B, glutamate 100 μM, glycine 50 μM): 21 nM
IC50 (human NR1/NR2B; Table 2.2): 21 nM
IC50 (human NR1/NR2B; Table 2.3): 21 nM
number of rats showing tonic convulsions, change vs vehicle controls [2]: −82%
latency to clonic convulsions, change vs vehicle controls ([2]; rats): +72%
latency to death, change vs vehicle controls ([2]; rats): +35%
latency to tonic convulsions, change vs vehicle controls ([2]; rats): +39%
number of deaths, change vs vehicle controls ([2]; rats): −91%
CYP2D6 @ 10 μM (%) (CYP2D6): 14%
